The target in the experiment is human SPR (Homo sapiens (Human), UniProt P35270). Description: Evaluation Example 2: Measurement of human SPR inhibitory activity (seven concentrations, sepiapterin absorbance at 420 nm). It is filed as biochemical. In outline: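 His-tagged full-length human SPR (1-261) was expressed in E. coli and the tag removed. Enzyme at 150 ng/mL in 100 mM Tris-HCl pH 7.5/0.01% BSA was mixed with compound (0.14–100 nM, seven points), 120 μM sepiapterin and 160 μM NADPH, both as added-solution concentrations. After 240 min at room temperature, remaining sepiapterin was read at 420 nm to give percent inhibition.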

Setting [1] is: Evaluation Example 2, seven concentrations 0.14 nM to 100 nM, 240 minutes at room temperature, read-out: IC50.
Setting [2] is: sepiapterin absorbance, Table 41, read-out: concentration at 50% inhibition of human SPR (IC50).

Where a name gives a salt, the structure may show the parent alone. Read-outs that look alike come from different tables or passages of the source.

Chain of human SPR (P35270 whole entry): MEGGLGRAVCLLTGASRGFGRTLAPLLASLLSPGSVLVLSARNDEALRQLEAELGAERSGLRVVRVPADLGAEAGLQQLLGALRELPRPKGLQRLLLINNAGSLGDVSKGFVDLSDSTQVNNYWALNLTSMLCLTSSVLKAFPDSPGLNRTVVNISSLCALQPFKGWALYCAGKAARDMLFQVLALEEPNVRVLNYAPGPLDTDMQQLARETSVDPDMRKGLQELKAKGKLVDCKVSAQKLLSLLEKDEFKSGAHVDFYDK

As for `Cc1nn2c(O)c(C(=O)NC3CC3)c(=O)n(CC(C)C)c2c1/C=C/C(=O)N1C[C@H](C)OC[C@@H]1C` [Synthesis Example 645, N-Cyclopropyl-3-((E)-3-((2S,5S)-2,5-dimethylmorpholino)-3-oxoprop-1-en-1-yl)-7-hydroxy-4-isobutyl-2-methyl-5-oxo-4,5-dihydropyrazolo[1,5-a]pyrimidine-6-carboxamide], under setting [1], the IC50 was determined as 0.8 nM.
In the case of `CC(C)Cn1c(=O)c(C(=O)NC2CC2)c(O)n2ncc(/C=C/C(=O)N3CCN(CC4CC(F)(F)C4)CC3)c12` [Synthesis Example 714, (E)-N-Cyclopropyl-3-(3-(4-((3,3-difluorocyclobutyl)methyl)piperazin-1-yl)-3-oxoprop-1-en-1-yl)-7-hydroxy-4-isobutyl-5-oxo-4,5-dihydropyrazolo[1,5-a]pyrimidine-6-carboxamide], under setting [2], the IC50 turned out to be 2.54 nM.
Same read-out and setting: the same measure for `CC(C)Cn1c(=O)c(C(=O)NC2CC2)c(O)n2ncc(/C=C/C(=O)N3CCN(C4CC(F)(F)C4)C[C@@H]3C)c12` [Synthesis Example 726, (S,E)-N-Cyclopropyl-3-(3-(4-(3,3-difluorocyclobutyl)-2-methylpiperazin-1-yl)-3-oxoprop-1-en-1-yl)-7-hydroxy-4-isobutyl-5-oxo-4,5-dihydropyrazolo[1,5-a]pyrimidine-6-carboxamide]: 1.35 nM.
Take `Cc1nnc(/C=C/c2cnn3c(O)c(C(=O)NC4CC4)c(=O)n(CC(C)C)c23)s1` [Synthesis Example 268, (E)-N-Cyclopropyl-7-hydroxy-4-isobutyl-3-(2-(5-methyl-1,3,4-thiadiazol-2-yl)vinyl)-5-oxo-4,5-dihydropyrazolo[1,5-a]pyrimidine-6-carboxamide]: the IC50 under setting [1] came out at 1.04 nM.
Consider `CC(C)Cn1c(=O)c(C(=O)NC2CC2)c(O)n2ncc(/C=C/C(=O)N(C)C3CC3)c12` [compound 497, (E)-N-Cyclopropyl-3-(3-(cyclopropyl(methyl)amino)-3-oxoprop-1-en-1-yl)-7-hydroxy-4-isobutyl-5-oxo-4,5-dihydropyrazolo[1,5-a]pyrimidine-6-carboxamide], for which, under setting [1], the IC50 was 0.59 nM.
`CC(C)(C)Cn1c(=O)c(C(=O)NC2CC2)c(O)n2nc(-c3cccnc3C(F)F)cc12` [Synthesis Example 297, N-Cyclopropyl-2-(2-(difluoromethyl)pyridin-3-yl)-7-hydroxy-4-neopentyl-5-oxo-4,5-dihydropyrazolo[1,5-a]pyrimidine-6-carboxamide]: the IC50 under setting [1] came out at 3.32 nM.
For `CC(C)(C)Cn1c(=O)c(C(=O)NC2CC2)c(O)n2nc(Nc3cncc(C(F)(F)F)n3)cc12` [Synthesis Example 331, N-Cyclopropyl-7-hydroxy-4-neopentyl-5-oxo-2-((6-(trifluoromethyl)pyrazin-2-yl)amino)-4,5-dihydropyrazolo[1,5-a]pyrimidine-6-carboxamide], the IC50 under setting [1] was 1.71 nM.
Regarding `CC(C)(C)Cn1c(=O)c(C(=O)NC2CC2)c(O)n2nc(N)c(/C=C/C3CC3)c12` [Synthesis Example 440, (E)-2-Amino-N-cyclopropyl-3-(2-cyclopropylvinyl)-7-hydroxy-4-neopentyl-5-oxo-4,5-dihydropyrazolo[1,5-a]pyrimidine-6-carboxamide hydrochloride], under setting [1], the IC50 came to 1.2 nM.
As to `CC(C)Cn1c(=O)c(C(=O)NC2CC2)c(O)n2ncc(/C=C/C(=O)N3CCCC3(C)C)c12` [compound 537, (E)-N-Cyclopropyl-3-(3-(2,2-dimethylpyrrolidin-1-yl)-3-oxoprop-1-en-1-yl)-7-hydroxy-4-isobutyl-5-oxo-4,5-dihydropyrazolo[1,5-a]pyrimidine-6-carboxamide], the IC50 under setting [1] was 0.86 nM.
Take `CC(C)Cn1c(=O)c(C(=O)NC2CC2)c(O)n2ncc(/C=C/C(=O)N3CCC[C@H]3C(=O)N(C)C)c12` [compound 587, (S,E)-N-Cyclopropyl-3-(3-(2-(dimethylcarbamoyl)pyrrolidin-1-yl)-3-oxoprop-1-en-1-yl)-7-hydroxy-4-isobutyl-5-oxo-4,5-dihydropyrazolo[1,5-a]pyrimidine-6-carboxamide]: the IC50 under setting [1] was 1.37 nM.
On the same count and under the same terms, the same measure for `CC(C)(C)Cn1c(=O)c(C(=O)NC2CC2)c(O)n2nc(-c3cc(C#N)cnc3N)cc12` [Synthesis Example 291, 2-(2-Amino-5-cyanopyridin-3-yl)-N-cyclopropyl-7-hydroxy-4-neopentyl-5-oxo-4,5-dihydropyrazolo[1,5-a]pyrimidine-6-carboxamide]: 6.42 nM; for `Cc1nn2c(O)c(C(=O)NC3CC3)c(=O)n(CC(C)C)c2c1/C=C/C(=O)N1CC2C(C1)C2(F)F` (centres unmarked) [compound 608, (E)-N-Cyclopropyl-3-(3-(6,6-difluoro-3-azabicyclo[3.1.0]hexan-3-yl)-3-oxoprop-1-en-1-yl)-7-hydroxy-4-isobutyl-2-methyl-5-oxo-4,5-dihydropyrazolo[1,5-a]pyrimidine-6-carboxamide]: 1.07 nM.
As to `CC(C)Cn1c(=O)c(C(=O)NC2CC2)c(O)n2ncc(/C=C/C(=O)N3CCOCC3(C)C)c12` [compound 459, (E)-N-Cyclopropyl-3-(3-(3,3-dimethylmorpholino)-3-oxoprop-1-en-1-yl)-7-hydroxy-4-isobutyl-5-oxo-4,5-dihydropyrazolo[1,5-a]pyrimidine-6-carboxamide], under setting [1], the IC50 is 0.74 nM.
For `CC(C)Cn1c(=O)c(C(=O)NC2CC2)c(O)n2ncc(/C=C/C(=O)NC3(C)CCOCC3)c12` [compound 492, (E)-N-Cyclopropyl-7-hydroxy-4-isobutyl-3-(3-((4-methyltetrahydro-2H-pyran-4-yl)amino)-3-oxoprop-1-en-1-yl)-5-oxo-4,5-dihydropyrazolo[1,5-a]pyrimidine-6-carboxamide], under setting [1], the IC50 was 0.89 nM.
For the compound `C/C(=C\c1cnn2c(O)c(C(=O)NC3CC3)c(=O)n(CC(C)C)c12)C(=O)O` [Synthesis Example 252, (E)-3-(6-(Cyclopropylcarbamoyl)-7-hydroxy-4-isobutyl-5-oxo-4,5-dihydropyrazolo[1,5-a]pyrimidin-3-yl)-2-methylacrylic acid], the IC50 under setting [1] was determined as 7.11 nM.
On to `Cc1nn2c(O)c(C(=O)NC3CC3)c(=O)n(CC(C)C)c2c1/C=C/C(=O)N(C)C1CC1` [compound 572, (E)-N-Cyclopropyl-3-(3-(cyclopropyl(methyl)amino)-3-oxoprop-1-en-1-yl)-7-hydroxy-4-isobutyl-2-methyl-5-oxo-4,5-dihydropyrazolo[1,5-a]pyrimidine-6-carboxamide], for which the IC50 under setting [1] is 1.1 nM.
On to `CC(C)(C)Cn1c(=O)c(C(=O)NC2CC2)c(O)n2nc(-c3cn[nH]c3C#N)cc12` [Synthesis Example 301], for which the IC50 under setting [1] worked out at 1.22 nM.
As to `CC(Cn1c(=O)c(C(=O)NC2CC2)c(O)n2ncc(/C=C/C(=O)N3CCOCC3)c12)C(F)(F)F` (single isomer, unassigned) [Synthesis Example 388, (E)-N-Cyclopropyl-7-hydroxy-3-(3-morpholino-3-oxoprop-1-en-1-yl)-5-oxo-4-(3,3,3-trifluoro-2-methylpropyl)-4,5-dihydropyrazolo[1,5-a]pyrimidine-6-carboxamide], the IC50 under setting [1] is 1.53 nM.
As for `Cc1nn2c(O)c(C(=O)NC3CC3)c(=O)n(CC(C)C)c2c1/C=C/C(=O)N1CCO[C@H](C)C1` [Synthesis Example 679, (R,E)-N-Cyclopropyl-7-hydroxy-4-isobutyl-2-methyl-3-(3-(2-methylmorpholino)-3-oxoprop-1-en-1-yl)-5-oxo-4,5-dihydropyrazolo[1,5-a]pyrimidine-6-carboxamide], the IC50 under setting [1] turned out to be 0.94 nM.
Consider `Cc1nn2c(O)c(C(=O)NC3CC3)c(=O)n(CC(C)C)c2c1/C=C/C(=O)N1[C@H](C)CC[C@H]1C` [Synthesis Example 616, N-Cyclopropyl-3-((E)-3-((2R,5R)-2,5-dimethylpyrrolidin-1-yl)-3-oxoprop-1-en-1-yl)-7-hydroxy-4-isobutyl-2-methyl-5-oxo-4,5-dihydropyrazolo[1,5-a]pyrimidine-6-carboxamide], for which the IC50 under setting [1] came out at 1.12 nM.
As to `CC(C)Cn1c(=O)c(C(=O)NC2CC2)c(O)n2ncc(/C=C/C(=O)N3CCC(C)(O)C3)c12` (racemic) [compound 500, (E)-N-Cyclopropyl-7-hydroxy-3-(3-(3-hydroxy-3-methylpyrrolidin-1-yl)-3-oxoprop-1-en-1-yl)-4-isobutyl-5-oxo-4,5-dihydropyrazolo[1,5-a]pyrimidine-6-carboxamide (racemate)], the IC50 under setting [1] was found to be 0.88 nM.
Same read-out and setting: the same measure for `CC(C)Cn1c(=O)c(C(=O)NC2CC2)c(O)n2ncc(/C=C/C(=O)N3CCC(C#N)CC3)c12` [compound 468]: 0.84 nM.
`Cc1cc(CNC(=O)c2cnn3c(O)c(C(=O)NC4CC4)c(=O)n(CC(C)C)c23)n(C)n1` [Synthesis Example 229, N6-Cyclopropyl-N3-((1,3-dimethyl-1H-pyrazol-5-yl)methyl)-7-hydroxy-4-isobutyl-5-oxo-4,5-dihydropyrazolo[1,5-a]pyrimidine-3,6-dicarboxamide]: the IC50 under setting [1] stood at 0.85 nM.
In the case of `COC1CN(C(=O)/C=C/c2cnn3c(O)c(C(=O)NC4CC4)c(=O)n(CC(C)C)c23)C1` [compound 558, (E)-N-Cyclopropyl-7-hydroxy-4-isobutyl-3-(3-(3-methoxyazetidin-1-yl)-3-oxoprop-1-en-1-yl)-5-oxo-4,5-dihydropyrazolo[1,5-a]pyrimidine-6-carboxamide], the IC50 under setting [1] was 1.14 nM.
For the compound `CC(C)(C)Cn1c(=O)c(C(=O)NC2CC2)c(O)n2nc(-c3cccnc3C#N)cc12` [Synthesis Example 293, 2-(2-Cyanopyridin-3-yl)-N-cyclopropyl-7-hydroxy-4-neopentyl-5-oxo-4,5-dihydropyrazolo[1,5-a]pyrimidine-6-carboxamide], the IC50 under setting [1] stood at 2.24 nM.
Still for that read-out and setting: next, `CC(C)(C)Cn1c(=O)c(C(=O)NC2CC2)c(O)n2nc(-c3n[nH]c4ccncc34)cc12` [Synthesis Example 307, N-Cyclopropyl-7-hydroxy-4-neopentyl-5-oxo-2-(1H-pyrazolo[4,3-c]pyridin-3-yl 4,5-dihydropyrazolo[1,5-a]pyrimidine-6-carboxamide hydrochloride]: 3.03 nM.

Values taken from patent publication US20240092784A1, “CONDENSED HETEROCYCLIC COMPOUND” (NISSAN CHEMICAL CORPORATION, priority 2020, published 2024).
